# Patent publication EP1136472A1, “ARYL- AND HETEROARYLAMIDES OF CARBOALKOXYSULFANILIC ACIDS” (priority 1998, dated 2000)
# Tests used:
# [1] = system: primary culture of human lymphocytes; assay: Interferon-inducing activity in primary culture of human lymphocytes (IFN-α immunoenzyme test); type: cell-based
# Description: Interferon synthesis induction caused by the claimed compounds was conducted on a primary culture of human lymphocytes (it is these cells in a human organism that are the main producers of interferons). To obtain lymphocyte culture, fresh blood (within 12 hours after sampling) from healthy donors (not of group II) was used. To separate lymphocytes, heparinized blood obtained from healthy donor was centrifuged in a density gradient ficoll-verografin of […] in order to extract a fraction of immunocompetent cells. This fraction was selected and diluted with the nutrient medium RPMI-1640, containing 5% of fetal calf serum, 0.3 mg/ml of L-glutamin, 100 un/ml of penicillin, and 50 µg/ml of streptomycin. The concentration of lymphocytes was considered after dying them with methylene blue and calculation of cell number in a chamber of a hemocytometer. Initial solutions of the claimed compounds were diluted with the nutrient medium RPMI-1640 so that the final concentrations of the compounds, which were obtained after introduction of lymphocyte suspension, constituted the raw: 100 µg/ml, 10 µg/ml, 1 µg/ml. The final concentration of lymphocytes in the induction mixture was 3x10^6 cell/ml.
# Control and test samples were incubated for 24 hours at the temperature of 37°C. After incubation, the samples were centrifuged at 2,000 G to deposit cell elements, and IFN-containing supernatant was separate out of the samples; then the supernatant was analyzed for the quantitative content of IFN. Cell deposition was resuspended in the preceding volume of nutrient medium, colored with vital dye trypan blue, and cell number was counted in a chamber of a hemocytometer (as described above) to determine cytotoxic action of the compounds.
# Quantitative determination of the content of IFN in control and test samples was conducted using the immunoenzyme test system Pro Con IF2 Plus, that is intended for determination of IFN-α, which is produced by TOO "Protein contour". The solid-phase immunoenzyme method, utilizing horse radish peroxidase as an indicator enzyme, was used to determine the quantity of interferon in the samples. Activity of the bonded peroxidase was measured using an automatic photometer for microplates with a microprocessor at the wavelength of 450 nm.
# Based on the obtained results, a calibrating curve was formed, which allows to obtain data expressed in international units (IU) of activity, using the microprocessor of the automatic photometer. The results of the analysis are expressed in IU of activity of IFN per ml in the given induction system, which contains 3x10^6 lymphocyte/ml. Each test and control point was investigated in four parallels.
# Controls of immunoenzyme reaction: • 1. Control of DMSO with a nutrient medium. • 2. Control of system components (according to an instruction).
# The obtained data were undergone a statistical analysis using t-criterion, and calculation of the confident interval of probability at p=0.05 was carried out. Coincidence between the results obtained in the parallel tests was analyzed.
# [2] = system: Herpes Simplex virus of the type I (HSV-I /Leningrad/248/88); assay: Antiviral effect on Herpes Simplex virus (cytopathogenic action on Vero cells); type: cell-based; conditions: for Quantity of the unchanged cells: number of cells in 100 visual fields
# C.trachomatis D323 = assay: Antichlamydial activity in infected cell culture (McCoy and L929); type: cell-based, Chlamydia trachomatis; conditions: 100 mg/l, 48 hours; for Number of unchanged cells: counted in 100 visual fields
# Description: The antichlamydial activity of the claimed compounds was studied in respect to C.trachomatis […], which is a standard strain contained in the collection of the department of microbiology of St. Petersburg State Pavlov Medical University. […] Cell cultures McCoy and L929 obtained from the Institute of Cytology of RAS were used in this work. Cells were grown in flasks made of neutral glass in the medium RPMI-1640 containing 10% of fetal calf serum. The test was performed in flat-bottom flasks made of glass (non-toxic), that were supplied with cover glasses. The cells were introduced into the medium in the final concentration of 1x10^6 cell/ml. […] Simultaneously, tested compounds in a final concentration of 100 mg/l were added to the cells. The sample was centrifuged at 2400 G for 60 minutes at a room temperature and incubated at 37°C for 2 hours. […] The samples were doubled using the medium without cycloheximide so as to exclude its effect on the investigated compounds. The samples were incubated for 48 hours in CO2-incubator. The controls included: • 1. Control of cell culture • 2. Control of action of solvents • 3. Control of action of chlamydia in absence of any compounds • 4. […] Control of the tested compounds as to toxicity in respect to the cell culture. Evaluation of the results was carried out by the way of determination of chlamydial cytoplasmatic inclusions (CPI) that was conducted by the method of immunofluorescence (MicroTrack Chlamydia trachomatis Direct Specimen Test), and by the way of determination of chlamydia antigens that was conducted by means of CylaMonoScreen (Russian-British Joint Venture 66 Regent's Parc Road London NW1 7SX). The effect of the action of compound was determined by analysis of the monolayer state and number of cells with CPI when compared with the control (cell culture infected with C.trachomatis […]); in doing so, the number of unchanged cells, that were counted in 100 visual fields obtained using the eyepiece-micrometer, was taken into consideration.
# [3] = compound concentration of 100 µg/ml, after 36 hours
# [4] = compound concentration of 100 µg/ml, protection of cells from virus as compared to the control of cell culture
Compound,Content of IFN in induction mixture after 24-hour incubation ([1]; 1 mg/l),Content of IFN in induction mixture after 24-hour incubation ([1]; 10 mg/l),Content of IFN in induction mixture after 24-hour incubation ([1]; 100 mg/l),"Quantity of the unchanged cells [2, 3]","percentage of protection [2, 4] [%]","percentage of protection ([2]; Acyclovir 10 µg/ml, as compared to the control of cell culture) [%]",Quantity of the unchanged cells ([2]; Acyclovir 10 µg/ml),percentage of cell protection from infection (C.trachomatis D323) [%],Number of unchanged cells (C.trachomatis D323)
"CCCCCCCOC(=O)Nc1ccc(S(=O)(=O)Nc2ccccc2Cl)cc1 [XXVII, Carboheptoxysulfanylic acid (2-chlorophenyl)amide]","1,2 ± 0,1 IU/3x10^4 lymph./ml","1,5 ± 0,3 IU/3x10^4 lymph./ml","2 ± 0,3 IU/3x10^4 lymph./ml",,,,,,
"CCCCOC(=O)Nc1ccc(S(=O)(=O)Nc2ccccc2)cc1 [XIII, Carbobutoxysulfanylic acid phenylamide]","1,5 ± 0,2 IU/3x10^4 lymph./ml","1,4 ± 0,1 IU/3x10^4 lymph./ml","2 ± 0,1 IU/3x10^4 lymph./ml",5000,50,,,,
"CCCCOC(=O)Nc1ccc(S(=O)(=O)Nc2ccccc2Cl)cc1 [IX, Carbobutoxysulfanylic acid (2-chlorophenyl)amide]","1,5 ± 0,1 IU/3x10^4 lymph./ml","2 ± 0,1 IU/3x10^4 lymph./ml","2,5 ± 0,5 IU/3x10^4 lymph./ml",7000,70,,,,
"CCCCCOC(=O)Nc1ccc(S(=O)(=O)Nc2c(Cl)cccc2Cl)cc1 [XIX, Carbopentoxysulfanylic acid (2,6-dichlorophenyl)amide]",,,,8000,80,,,,
"CCCCOC(=O)Nc1ccc(S(=O)(=O)Nc2cc(C)ccc2C)cc1 [XIV, Carbobutoxysulfanylic acid (2,5-dimethyl)amide]","1,2 ± 0,1 IU/3x10^4 lymph./ml","1,8 ± 0,2 IU/3x10^4 lymph./ml","2 ± 0,2 IU/3x10^4 lymph./ml",7000,70,,,,
"Nc1nc2c(ncn2COCCO)c(=O)[nH]1 [Acyclovir, reference compound]",,,,,,80,8000,,
"CCCCOC(=O)Nc1ccc(S(=O)(=O)Nc2c(Cl)cccc2Cl)cc1 [X, Carbobutoxysulfanylic acid (2,6-dichlorophenyl)amide]",7 ± 1 IU/3x10^4 lymph./ml,26 ± 1 IU/3x10^4 lymph./ml,100 ± 3 IU/3x10^4 lymph./ml,7000,70,,,50,4.000
"Carbo(2,2,2-trifluorethoxy)-sulfanylic acid (1,2,4-thiadiazole-2-butyl-5-yl)amide [XL]",1.6 ± 0.1 IU/3x10^4 lymph./ml,3.6 ± 0.5 IU/3x10^4 lymph./ml,14 ± 0.2 IU/3x10^4 lymph./ml,7000,70,,,,
"CCCCOC(=O)Nc1ccc(S(=O)(=O)Nc2ccccc2C)cc1 [VIII, Carbobutoxysulfanylic acid (2-toluyl)amide]",,,,8000,80,,,,
"CCCCCCOC(=O)Nc1ccc(S(=O)(=O)Nc2ccccc2Cl)cc1 [XXVIII, Carbohexoxysulfanylic acid (2-chlorophenyl)amide]","1,4 ± 0,1 IU/3x10^4 lymph./ml","2,3 ± 0,2 IU/3x10^4 lymph./ml","3 ± 0,1 IU/3x10^4 lymph./ml",,,,,,
"CCCCOC(=O)Nc1ccc(S(=O)(=O)Nc2cccc(Br)c2)cc1 [XII, Carbobutoxysulfanylic acid (3-bromophenyl)amide]","1,3 ± 0,2 IU/3x10^4 lymph./ml","2 ± 0,5 IU/3x10^4 lymph./ml","2,5 ± 0,6 IU/3x10^4 lymph./ml",5000,50,,,45,3.600
"CCCCOC(=O)Nc1ccc(S(=O)(=O)Nc2ccc(Br)cc2)cc1 [III, Carbobutoxysulfanylic acid (4-bromophenyl)amide]","1,4 ± 0,2 IU/3x10^4 lymph./ml","2,6 ± 0,3 IU/3x10^4 lymph./ml","3,5 ± 0,2 IU/3x10^4 lymph./ml",5000,50,,,,
"CCOC(=O)Nc1ccc(S(=O)(=O)Nn2cnnc2)cc1 [XXVI, Carboethoxysulfanylic acid (1,2,4-triazole-4-yl)amide]","1,6 ± 0,1 IU/3x10^4 lymph./ml","2 ± 0,2 IU/3x10^4 lymph./ml","2,5 ± 0,5 IU/3x10^4 lymph./ml",,,,,,
"CCCCCCOC(=O)Nc1ccc(S(=O)(=O)Nc2ccc(Br)cc2)cc1 [V, Carbohexoxysulfanylic acid (4-bromophenyl)amide]","1,1 ± 0,1 IU/3x10^4 lymph./ml","1,4 ± 0,1 IU/3x10^4 lymph./ml","2 ± 0,3 IU/3x10^4 lymph./ml",5000,50,,,,
